From patent publication US6756504B2, “Sphingolipids” (Yissum Research Development Company of the Hebrew …, priority 2000, dated 2004)

Experiments:
Assay type in all cases: cell-based, Human
HL60 cells = experiment: Apoptosis in HL60 cells, propidium iodide flow cytometry (FACS)
Procedure: The apoptotic effect of three different compounds was further examined on HL60 cells using a flow cytometry method. […] Washed cells were then treated with 5% Triton and stained with propidium iodide 0.5% mg in 0.1% sodium citrate pH 7.4. Analysis was performed using a Becton Dickinson Fluorescence Activated Cell Sorter (FACS).

[1] = tested on: Bod3-SPM (sphingomyelin) synthesis in HL60 cells; experiment: Sphingolipid metabolism from Bodipy-C3-ceramide: Bod3-SPM in HL60; conditions: HL60, 3 hours, 2.5 μM Bodipy-C3-ceramide; read-out: od 3-SPM (IC50 for reduction of Bod3-SPM, cell+medium)
Procedure: (§1) In order to examine the effect of the different compounds on sphingolipids metabolism, different cell lines were incubated with increasing concentrations of different compounds of the invention in the presence of 2.5 μM Bodipy-C3-ceramide that was added to the culture medium as a solution in dimethylsulfoxide (not exceeding 0.1% DMSO of the final volium). After 3 hours, cells and medium were collected and centrifuged. Cells were next extracted with chloroform-methanol containing 2% acetic acid 1:1 (by volume) and the medium was shaken with an equal volume of chloroform-methanol, 1:1 (by volume). The phases were separated by centrifugation and the lower chloroform phase was collected. The solvents were evaporated and applied to thin layer chromatography silica gel plates (Whatman 4865-821) with a concentrating zone.
(§2) Plates were developed as follows: For medium: in chloroform-methanol-H2O, 75:25:4 by volume. For cells: plates were first developed with chloroform-methanol, 9:1, then dried and re-run in chloroform-methanol: H2O, 65:35:4.
(§3) Standards of Bodipy-C3-ceramide: Bodipy-C3-glucosylceramide (Bod3-GC) and Bodipy C3 sphingomyelin (Bod3-SPM) were used as markers. The fluorescence of the respective Bod3-SPM and Bod3-GC spots was quantified using a Fuji FLA-2000 scanner.

[2] = tested on: Bod3-GC (glucosylceramide) synthesis in HL60 cells; experiment: Sphingolipid metabolism from Bodipy-C3-ceramide: Bod3-GC in HL60; conditions: HL60, 3 hours, 2.5 μM Bodipy-C3-ceramide; read-out: od 3-GC (IC50 for Bod3-GC reduction)
Procedure: as §1, §2, §3

[3] = tested on: Bod3-SPM synthesis in MCF-NCi cells; experiment: Sphingolipid metabolism: Bod3-SPM in MCF-NCi; conditions: 3 hours, 2.5 μM Bodipy-C3-ceramide, read-out: od 3-SPM (IC50 for reduction of Bod3-SPM)
Procedure: as §1, §2, §3

## CCCCCCNc1ccc([C@@H](O)[C@@H](CO)NCCCCCC)cc1 [AD-2665, (2R,3R)-2-(N-hexylamine)-1-(4-N-hexylaminophenyl)-1,3-propanediol]
HL60 cells; HL60, 30 min, 40 μM
  apoptotic cells: 5%
HL60 cells; HL60, 3 hours, 10 μM
  apoptotic cells: about 8%
HL60 cells; HL60, 3 hours, 20 μM
  apoptotic cells: 26%
HL60 cells; HL60, 24 hours, 10 μM
  apoptotic cells: 25%
[1]
  IC50: 4 µM
[2]
  IC50: 5 µM
[3]
  IC50: 7 µM
